Results taken from US20070101461A1, “Method for Improving Phytoremediation Treatment of a Contaminated Medium” (priority 2001, published 2007).

What was measured:
Iris pseudocarus = assay: survival of plants in the presence of 2,4-D; assay type: in vivo; conditions: 5 mg/l 2,4-D
plant = conditions: cited from earlier work
Lupinus luteus = assay: toxicity test: toluene on growth of Lupinus luteus; conditions: hydroponic, 0-3000 mg per liter tested, all other exposed plants dead
yellow lupine = assay: plant growth with toluene during hydroponic cultivation; conditions: non-inoculated plants
Pseudomonas sp. VM422 = assay: zinc resistance phenotype, MIC on Tris minimal medium; assay type: cell-based; conditions: strain VM422

O=C(O)COc1ccc(Cl)cc1Cl [2,4-D, 2,4-dichlorophenoxyacetic acid]
Dead plants, Non-inoculated plants + 2,4-D (Iris pseudocarus): 75% | Healthy plants, Non-inoculated plants + 2,4-D (Iris pseudocarus): 25%

ClC(Cl)=C(Cl)Cl [PER]
Fate in plant (toxic, build up, or volatile) (plant): Volatile

ClC=C(Cl)Cl [TCE, tri-chloro-ethylene]
Fate in plant (toxic, build up, or volatile) (plant): Volatile, Build-up

Cc1ccccc1 [toluene]
toluene concentration at which the exposed plant was not dead at the end of the third week (Lupinus luteus): 100 mg per liter | toluene dose at which non-inoculated controls showed growth reduction (yellow lupine): 100 mg/L

[Zn] [zinc]
MIC value for zinc (Pseudomonas sp. VM422): 20 mM
